# Results: ChEMBL document CHEMBL5543094, “Exploration of P1 and P4 modifications of nirmatrelvir: Design, synthesis, biological evaluation, and X-ray structural studies of SARS-CoV-2 Mpro inhibitors” (Eur J Med Chem, 2024)
# Active and inactive are the calls of the source. The calls are words filed in the database; no cut-off is given here.
# Key:
# SARS-CoV-2 [1] = experiment: Antiviral activity against SARS-CoV-2 WK-521 infected in African green monkey VeroE6/TMPRSS2 cells assessed as reduction in virus infectivity at 1 uM by immunocytochemistry analysis; format: functional, organism-based; conditions: Severe acute respiratory syndrome coronavirus 2
# SARS-CoV-2 [2] = experiment: Antiviral activity against SARS-CoV-2 WK-521 infected in African green monkey VeroE6/TMPRSS2 cells assessed as reduction in virus infectivity at 10 to 100 uM by immunocytochemistry analysis; format: functional, organism-based; conditions: Severe acute respiratory syndrome coronavirus 2, dose 10-100 µM
# SARS-CoV-2 [3] = experiment: (§1) Antiviral activity against SARS-CoV-2 infected in African green monkey Vero E6 cells assessed as reduction in viral replication pre-infected with cells for 1 hr followed by compound treatment and measured after 3 days by RT-qPCR analysis; format: functional, organism-based; conditions: Severe acute respiratory syndrome coronavirus 2, Vero C1008
# [4] = molecular target: Replicase polyprotein 1ab (Severe acute respiratory syndrome coronavirus 2, UniProt P0DTD1); experiment: Inhibition of N-terminal hexa-histidine tagged SARS-CoV-2 main protease expressed in Escherichia coli BL21 (DE3) using HiLyte Fluor 488TM-ESATLQSGLRKAK-QXL520TM-NH2 as substrate by FRET assay
# SARS-CoV-2 [5] = experiment: as §1, with “Potency index, ratio of nirmatrelvir EC50 to test compound EC50 for antiviral” for “Antiviral”; format: functional, Severe acute respiratory syndrome coronavirus 2; conditions: time 3 day
SMILES,Activity (SARS-CoV-2 [1]),Activity (SARS-CoV-2 [2]),EC50 (SARS-CoV-2 [3]),Ki [4],Ratio EC50 (SARS-CoV-2 [5])
CC(C)(C)[C@H](NC(=O)C(F)(F)F)C(=O)N1C[C@H]2[C@@H]([C@H]1C(=O)N[C@H](C#N)C[C@@H]1CCNC1=O)C2(C)C,inactive,Active,–,–,–
CC(C)(C)NC(=O)N[C@H](C(=O)N1C[C@H]2[C@@H]([C@H]1C(=O)N[C@H](C#N)C[C@@H]1CCNC1=O)C2(C)C)C(C)(C)C,–,–,100 µM,–,–
CC(C)(C)[C@H](NC(=O)C(F)(F)F)C(=O)N1C[C@H]2[C@@H]([C@H]1C(=O)N(C(=O)C(F)(F)F)[C@H](C#N)C[C@@H]1CCNC1=O)C2(C)C,–,–,100 µM,32300 nM,–
CC(=O)N[C@H](C(=O)N1C[C@H]2[C@@H]([C@H]1C(=O)N[C@H](C#N)C[C@@H]1CCNC1=O)C2(C)C)C(C)(C)C,–,–,4 µM,0.44 nM,–
CC(C)(C)[C@H](NC(=O)OCc1cccnc1)C(=O)N1C[C@H]2[C@@H]([C@H]1C(=O)N[C@H](C#N)C[C@@H]1CCNC1=O)C2(C)C,–,–,0.035 µM,0.09 nM,–
CC(C)(C)[C@H](NC(=O)C(Cl)(Cl)Cl)C(=O)N1C[C@H]2[C@@H]([C@H]1C(=O)N[C@H](C#N)C[C@@H]1CCNC1=O)C2(C)C,–,–,1.6 µM,0.2 nM,–
CCC(CC)COC(=O)[C@H](C)N[P@](=O)(OC[C@H]1O[C@@](C#N)(c2ccc3c(N)ncnn23)[C@H](O)[C@@H]1O)Oc1ccccc1,–,–,3.2 µM,–,–
CC(C)(C)[C@H](NC(=O)OCc1ccccc1)C(=O)N1C[C@H]2[C@@H]([C@H]1C(=O)N[C@H](C#N)C[C@@H]1CCNC1=O)C2(C)C,–,–,0.29 µM,0.025 nM,–
CC(C)(C)C(=O)N[C@H](C(=O)N1C[C@H]2[C@@H]([C@H]1C(=O)N[C@H](C#N)C[C@@H]1CCNC1=O)C2(C)C)C(C)(C)C,–,–,2.3 µM,22.1 nM,–
CC(C)(C)[C@H](NC(=O)C(F)(F)F)C(=O)N1C[C@H]2[C@@H]([C@H]1C(=O)N[C@H](C#N)C[C@@H]1CCCNC1=O)C2(C)C,–,Active,0.26 µM,0.04 nM,7
CC(C)(C)[C@H](NC(=O)OCc1ccncc1)C(=O)N1C[C@H]2[C@@H]([C@H]1C(=O)N[C@H](C#N)C[C@@H]1CCNC1=O)C2(C)C,–,–,40.1 µM,0.49 nM,–
CC(C)(C)[C@H](NC(=O)OCc1ccccn1)C(=O)N1C[C@H]2[C@@H]([C@H]1C(=O)N[C@H](C#N)C[C@@H]1CCNC1=O)C2(C)C,–,–,29.7 µM,32.2 nM,–
CC(C)(C)[C@H](NC(=O)OCc1cccnc1)C(=O)N1C[C@H]2[C@@H]([C@H]1C(=O)N[C@H](C#N)C[C@@H]1CCCNC1=O)C2(C)C,–,–,3.4 µM,0.094 nM,–
CC(C)(C)[C@H](NC(=O)OCc1ccncc1)C(=O)N1C[C@H]2[C@@H]([C@H]1C(=O)N[C@H](C#N)C[C@@H]1CCCNC1=O)C2(C)C,–,–,27.1 µM,7.8 nM,–
CC(C)(C)[C@H](NC(=O)C(Cl)(Cl)Cl)C(=O)N1C[C@H]2[C@@H]([C@H]1C(=O)N[C@H](C#N)C[C@@H]1CCCNC1=O)C2(C)C,–,–,0.27 µM,1.1 nM,>7
CC(C)(C)[C@H](NC(=O)c1ccccc1)C(=O)N1C[C@H]2[C@@H]([C@H]1C(=O)N[C@H](C#N)C[C@@H]1CCNC1=O)C2(C)C,–,–,17 µM,36.9 nM,–
